# From ChEMBL document CHEMBL5055644, “Cysteine derivatives as acetyl lysine mimics to inhibit zinc-dependent histone deacetylases for treating cancer” (Eur J Med Chem, 2021)
# Active and inactive are the calls of the source. No cut-off for these calls is given here.
# What was measured:
# Histone deacetylase 1 = Histone deacetylase 1 (Homo sapiens, UniProt Q13547); experiment: Inhibition of HDAC1 (unknown origin) using Boc-Lys(acetyl)-AMC as fluorogenic substrate measured after 1 hr by flourescence plate reader method
# Histone deacetylase 1, sequence (Q13547 whole entry): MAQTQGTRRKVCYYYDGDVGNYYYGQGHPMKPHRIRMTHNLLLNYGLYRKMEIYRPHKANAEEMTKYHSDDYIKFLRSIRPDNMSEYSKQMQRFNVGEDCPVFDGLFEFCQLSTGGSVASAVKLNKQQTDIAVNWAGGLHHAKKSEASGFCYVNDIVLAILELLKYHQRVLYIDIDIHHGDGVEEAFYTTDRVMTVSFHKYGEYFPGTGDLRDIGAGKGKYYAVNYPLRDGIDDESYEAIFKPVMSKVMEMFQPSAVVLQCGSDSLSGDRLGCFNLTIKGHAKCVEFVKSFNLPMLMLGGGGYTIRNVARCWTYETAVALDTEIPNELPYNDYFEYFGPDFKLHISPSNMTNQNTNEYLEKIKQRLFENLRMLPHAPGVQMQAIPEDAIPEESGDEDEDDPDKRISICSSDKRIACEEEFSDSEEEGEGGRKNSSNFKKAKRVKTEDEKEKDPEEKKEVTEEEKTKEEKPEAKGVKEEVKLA
# [1] = target: T1, Protein deacetylase HDAC6 (Homo sapiens) (UniProt Q9UBN7); experiment: Inhibition of HDAC6 in human K562 cells assessed as increase in alpha tubulin acetylation at 10 uM measured after 8 hrs by Western blot analysis; type: cell-based
# T1 sequence (whole entry): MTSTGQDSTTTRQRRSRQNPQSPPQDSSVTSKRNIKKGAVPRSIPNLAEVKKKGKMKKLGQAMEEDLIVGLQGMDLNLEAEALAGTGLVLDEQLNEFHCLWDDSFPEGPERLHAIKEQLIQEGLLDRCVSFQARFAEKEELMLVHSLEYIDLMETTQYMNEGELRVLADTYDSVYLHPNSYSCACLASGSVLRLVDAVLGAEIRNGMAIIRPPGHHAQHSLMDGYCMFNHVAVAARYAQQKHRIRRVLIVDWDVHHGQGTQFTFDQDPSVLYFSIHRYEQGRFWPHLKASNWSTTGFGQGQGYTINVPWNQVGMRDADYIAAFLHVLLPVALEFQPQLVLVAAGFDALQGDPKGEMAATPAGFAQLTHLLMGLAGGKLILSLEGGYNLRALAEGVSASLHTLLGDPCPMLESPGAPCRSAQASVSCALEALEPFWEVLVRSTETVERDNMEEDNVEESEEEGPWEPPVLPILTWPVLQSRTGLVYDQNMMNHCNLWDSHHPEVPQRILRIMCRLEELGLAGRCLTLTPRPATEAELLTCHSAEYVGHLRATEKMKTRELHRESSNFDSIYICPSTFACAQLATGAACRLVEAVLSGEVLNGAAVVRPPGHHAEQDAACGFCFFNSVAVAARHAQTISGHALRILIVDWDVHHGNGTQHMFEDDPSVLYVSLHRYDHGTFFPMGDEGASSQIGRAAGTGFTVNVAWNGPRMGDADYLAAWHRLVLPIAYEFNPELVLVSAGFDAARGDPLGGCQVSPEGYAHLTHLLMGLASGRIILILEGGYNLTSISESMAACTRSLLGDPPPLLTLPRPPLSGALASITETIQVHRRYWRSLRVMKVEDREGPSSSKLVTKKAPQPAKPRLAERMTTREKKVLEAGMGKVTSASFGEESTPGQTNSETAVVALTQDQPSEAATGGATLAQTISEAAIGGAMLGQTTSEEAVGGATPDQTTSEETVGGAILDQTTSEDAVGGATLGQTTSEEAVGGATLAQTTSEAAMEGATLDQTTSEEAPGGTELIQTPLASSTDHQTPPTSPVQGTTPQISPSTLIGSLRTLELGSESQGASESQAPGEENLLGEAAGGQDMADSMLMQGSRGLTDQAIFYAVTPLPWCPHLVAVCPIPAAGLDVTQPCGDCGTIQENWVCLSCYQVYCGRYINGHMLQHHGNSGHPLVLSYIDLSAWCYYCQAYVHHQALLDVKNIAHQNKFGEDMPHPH
# A549 [2] = experiment: Antitumour activity against human A549 cells xenografted in BALB/c mouse assessed as tumor growth inhibition at 25 mg/kg,iv administered for 3 weeks relative to control; type: functional; conditions: A549, 504 h, read-out: TGI
# [3] = target: T2, Class 1 histone deacetylase (Homo sapiens) (UniProt Q13547+O15379+Q92769+Q9BY41); experiment: Inhibition of class 1 HDAC in human A549 cells assessed as increase in histone H3/H4 acetylation measured after 24 hrs by Immunofluorescent assay; type: cell-based
# T2 sequence (O15379 whole entry, looked up): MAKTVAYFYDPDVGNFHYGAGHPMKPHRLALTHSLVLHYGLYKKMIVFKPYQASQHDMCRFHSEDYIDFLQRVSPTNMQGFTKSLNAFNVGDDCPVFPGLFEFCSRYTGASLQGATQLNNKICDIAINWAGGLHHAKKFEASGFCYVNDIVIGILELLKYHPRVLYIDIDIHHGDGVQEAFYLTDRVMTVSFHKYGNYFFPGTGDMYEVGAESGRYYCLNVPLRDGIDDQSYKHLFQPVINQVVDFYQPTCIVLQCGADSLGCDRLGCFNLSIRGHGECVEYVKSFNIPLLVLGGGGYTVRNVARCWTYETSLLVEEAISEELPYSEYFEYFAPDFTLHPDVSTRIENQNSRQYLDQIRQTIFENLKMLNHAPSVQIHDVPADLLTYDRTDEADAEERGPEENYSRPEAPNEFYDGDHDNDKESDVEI
# T2 sequence (Q13547 whole entry, looked up): as the sequence (Q13547 whole entry) above
# T2 sequence (Q92769 whole entry, looked up): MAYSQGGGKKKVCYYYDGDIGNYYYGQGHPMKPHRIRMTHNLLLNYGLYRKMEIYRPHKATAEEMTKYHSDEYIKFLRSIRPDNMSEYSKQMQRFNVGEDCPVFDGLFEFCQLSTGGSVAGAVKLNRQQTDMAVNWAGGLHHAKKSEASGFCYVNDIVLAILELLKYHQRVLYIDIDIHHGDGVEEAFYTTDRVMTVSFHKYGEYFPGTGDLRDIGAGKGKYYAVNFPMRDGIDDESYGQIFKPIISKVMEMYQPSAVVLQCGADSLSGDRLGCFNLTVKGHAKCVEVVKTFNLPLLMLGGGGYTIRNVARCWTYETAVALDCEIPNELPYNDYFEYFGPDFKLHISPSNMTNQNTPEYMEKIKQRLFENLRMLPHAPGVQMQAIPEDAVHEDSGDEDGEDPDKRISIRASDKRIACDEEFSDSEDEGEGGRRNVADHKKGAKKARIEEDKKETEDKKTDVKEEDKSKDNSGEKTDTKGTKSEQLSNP
# T2 sequence (Q9BY41 whole entry, looked up): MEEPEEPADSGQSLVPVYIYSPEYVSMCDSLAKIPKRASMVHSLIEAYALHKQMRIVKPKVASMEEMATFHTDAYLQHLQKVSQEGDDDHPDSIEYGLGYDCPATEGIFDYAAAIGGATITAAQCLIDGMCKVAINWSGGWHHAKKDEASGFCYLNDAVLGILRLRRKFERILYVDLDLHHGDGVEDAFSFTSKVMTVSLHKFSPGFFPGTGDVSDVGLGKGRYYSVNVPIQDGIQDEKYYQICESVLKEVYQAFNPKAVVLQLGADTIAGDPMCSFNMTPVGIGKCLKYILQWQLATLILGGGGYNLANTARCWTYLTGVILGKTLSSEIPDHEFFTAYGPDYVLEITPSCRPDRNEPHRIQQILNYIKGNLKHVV
# HeLa = experiment: cells; type: functional; conditions: Homo sapiens, time 48 hrs
# Description: Antiproliferative activity against human HeLa cells assessed as inhibition of cell proliferation incubated for 48 hrs by CCK8 assay
# K562 [4] = experiment: cells; type: functional; conditions: Homo sapiens, time 48 hrs
# Description: Antiproliferative activity against human K562 cells assessed as inhibition of cell proliferation incubated for 48 hrs by CCK8 assay
# Histone deacetylase 7 = target: T3, Histone deacetylase 7 (Homo sapiens, UniProt Q8WUI4); experiment: Inhibition of human N-terminal GST tagged HDAC7 (518 to end residues) expressed in baculovirus infected Sf9 insect cells using Boc-Lys(acetyl)-AMC as fluorogenic substrate measured after 1 hr by flourescence plate reader method
# T3 sequence (Q8WUI4 whole entry): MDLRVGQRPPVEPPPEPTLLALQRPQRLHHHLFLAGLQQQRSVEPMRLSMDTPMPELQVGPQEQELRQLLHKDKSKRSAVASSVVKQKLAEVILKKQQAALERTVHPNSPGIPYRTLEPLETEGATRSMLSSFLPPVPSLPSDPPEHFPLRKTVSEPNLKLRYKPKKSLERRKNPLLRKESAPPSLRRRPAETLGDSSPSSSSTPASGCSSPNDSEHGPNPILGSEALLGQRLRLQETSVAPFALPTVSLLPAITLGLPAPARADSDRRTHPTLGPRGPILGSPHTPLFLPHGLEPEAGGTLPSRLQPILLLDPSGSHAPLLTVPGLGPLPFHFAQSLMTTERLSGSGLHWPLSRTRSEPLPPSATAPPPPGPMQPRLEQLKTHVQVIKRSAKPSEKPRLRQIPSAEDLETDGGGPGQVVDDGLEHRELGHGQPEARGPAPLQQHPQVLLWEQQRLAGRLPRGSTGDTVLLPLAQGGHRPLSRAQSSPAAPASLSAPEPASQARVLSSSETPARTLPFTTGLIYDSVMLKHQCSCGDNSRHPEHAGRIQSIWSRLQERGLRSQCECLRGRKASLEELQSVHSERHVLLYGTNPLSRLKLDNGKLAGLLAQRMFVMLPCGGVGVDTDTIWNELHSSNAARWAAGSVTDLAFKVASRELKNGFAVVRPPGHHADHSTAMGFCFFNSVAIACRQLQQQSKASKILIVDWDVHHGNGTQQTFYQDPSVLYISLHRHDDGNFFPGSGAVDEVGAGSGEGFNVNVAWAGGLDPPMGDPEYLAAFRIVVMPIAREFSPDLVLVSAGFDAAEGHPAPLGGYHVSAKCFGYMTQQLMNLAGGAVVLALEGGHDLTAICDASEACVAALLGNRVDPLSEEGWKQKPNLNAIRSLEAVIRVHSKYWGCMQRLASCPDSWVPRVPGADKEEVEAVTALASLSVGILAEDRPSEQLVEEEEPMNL
# K562 [5] = experiment: Induction of apoptosis in human K562 cells assessed as increased cleaved caspase 9 at 10 uM measured after 8 hrs by Western blot analysis; type: functional, cell-based
# A549 [6] = experiment: Induction of cell cycle arrest in human A549 cells assessed as increase in accumulation at G1/G0 phase measured after 48 hrs by flow cytometry analysis; type: functional, cell-based; conditions: dose 1-10 µM
# [7] = target: T2, Class 1 histone deacetylase (Homo sapiens); experiment: Inhibition of class 1 HDAC in human MCF7 cells assessed as increase in histone H4 acetylation at 10 uM measured after 8 hrs by Western blot analysis; type: cell-based
# [8] = Half life in human liver microsomes; type: ADME, Microsome
# [9] = Half life in mouse liver microsomes; type: ADME, Microsome
# [10] = Acute toxicity in BALB/c mouse assessed as maximum tolerated dose; conditions: in vivo
# Mus musculus = experiment: Toxicity in BALB/c mouse xenografted with human A549 cells assessed as effect on body weight at 0.75 to 1.5 mg, IT(Intratumoral) measured after 21 days; type: organism-based; conditions: in vivo, other, 504 h, dose 0.75-1.5 mg, time 21 day
IC50 (Histone deacetylase 1) [nM],inhibition [1],GI50 (HeLa) [nM],GI50 (K562 [4]) [nM],IC50 (Histone deacetylase 7) [nM],inhibition [7],Structure (SMILES),inhibition in vivo at 25 mg/kg (A549 [2]) [%],inhibition [3],Activity (K562 [5]),Activity (A549 [6]),half-life [8] [min],half-life [9] [min],MTD [10] [mg/kg],Activity (Mus musculus)
150,Active,4300,2000,> 200,Active,O=C(CCCSC[C@H](NC(=O)OCc1ccccc1)C(=O)Nc1cccc2ccccc12)NO,–,–,–,–,3.96,< 1,–,–
172,Active,3800,1700,> 200,Active,O=C(CCCSC[C@H](NC(=O)OCc1ccccc1)C(=O)Nc1ccccc1)NO,–,–,–,–,–,–,–,–

Structure (SMILES),IC50 (Histone deacetylase 1) [nM],inhibition [1],GI50 (HeLa) [nM],GI50 (K562 [4]) [nM],IC50 (Histone deacetylase 7) [nM],inhibition [7],inhibition in vivo at 25 mg/kg (A549 [2]) [%],inhibition [3],Activity (K562 [5]),Activity (A549 [6]),half-life [8] [min],half-life [9] [min],MTD [10] [mg/kg],Activity (Mus musculus)
O=C(CCCSC[C@H](NC(=O)c1ccccc1)C(=O)Nc1ccccc1)NO,198,Active,4100,1400,> 200,Active,62,Dose-dependent effect,Active,Dose-dependent effect,34.8,22.6,100,Non-Toxic
